According to patent US11603377B2, “MTORC1 modulators and uses thereof” (Aeovian Pharmaceuticals, Inc., priority 2020, dated 2023):

Assays:
mTORC2 = mTORC2 (Homo sapiens (Human), UniProt P42345+P62942); assay: mTORC2 inhibition, AlphaLISA of Phospho-AKT (pAKT pS473) in PC3 cells; type: cell-based
Procedure: Example 32: mTORC1 Inhibition, mTORC2 Inhibition, Cell Lysis, AlphaLISA Experiments, and Data Analysis
mTORC2 inhibition was determined via analysis of phosphorylation level of Phospho-AKT (pAKT pS473) with the corresponding AlphaLISA kit (PerkinElmer, Alpha SF Ultra™ Multiplex p-AKT1/2/3(Ser473)/Total AKT1). PC3 cells were plated on 96 well plates in assay medium (DMEM: Ham's F12, basic (CLS Cell Lines Service GmbH, Cat #820400a), supplemented with additional 10% FBS at 1.20E+06 cells/mL and incubated over-night at 37° C., 5% CO2. On the following day, cells were treated with assay medium (10% FBS) containing increasing compound concentrations (12 points at 3-fold dilutions) and incubated for 6 hours at 37° C., 5% CO2. Thereafter, medium was aspirated and cells were rinsed with PBS. In the following, cells were treated with compound dilutions in starvation medium (DMEM: Ham's F12, basic; without FBS) for further 18 h at 37° C., 5% CO2. Then, immediately prior to cell lysis, cells were treated with 12% FBS for 15 min.
After performing experiments according to mTORC1 and mTORC2 protocols, cells were harvested in lysis buffer supplied with the AlphaLISA kits, additionally enriched with Roche cOmplete™ Protease Inhibitor Cocktail (Cat #CO-RO). Thus, cells were lysed using 50 μL of the lysis buffer and incubated for 60 min at 4° C. while shaking. After centrifugation at 4000 rpm for 5 min, experiments were performed according to the AlphaLISA manufacturer's protocol.
Ten microliters of cell lysates were mixed with the acceptor mix. After incubation for 2 h at room temperature, the donor mix was added. After additional incubation at room temperature for 2 hours, AlphaLISA signal was read on PHERAstar® FSX (BMG Labtech) with AlphaPLEX module.
EC50 values were calculated by ExcelFit standard algorithm.

[1] = target: FKBP51 / FRB ternary complex (Homo sapiens (Human), UniProt P42345+Q13451); assay: SPR assay to characterize ternary complex formation with FKBP51 (FRB binding to rapalog-saturated FKBP51); conditions: FRB dilutions with 100 nM rapalog on immobilized FKBP51
Procedure: Example 31: SPR Assay to Characterize Ternary Complex Formation with FKBP51
(§1) Biotinylated avi-FKBP51 was immobilized on a streptavidin chip (Cytiva Series S SA) using a Biacore 8K or 8 k+ (Cytiva). To achieve an immobilization level of 200 RU, 0.6 μg/ml biotinylated avi-FKBP51 were injected for 150 sec at a flow rate of 10 μl/min. Serial dilution of FRB was prepared (12 concentrations, 3-fold dilutions, 0.00011-20 μM) and supplemented with 100 nM of rapalog. A-B-A injection mode was used to ensure saturation immobilized […] with respective rapalog. 100 nM solution of the respective rapalog was injected before FRB injection for 120 sec and during dissociation for 420 sec. The FRB dilutions were then injected 120 seconds contact time with increasing concentrations. […] 50 mM HEPES pH 7.5, 150 mM NaCl, 2 mM MgCl2, 1 mM DTT, 0.05% Tween-20, 1% DMSO was used as running buffer at a flow rate of 30 μl/min. The multi-cycle kinetics data were fit to a 1:1 binding model to measure the association rate ka (1/Ms), the dissociation rate kd (1/s) and the affinity Kd (M). In case of fast association and dissociation, steady state affinity analysis following the law of mass action was used to determine the affinity Kd (M).

[2] = target: FKBP12 / FRB ternary complex (Homo sapiens (Human), UniProt P42345+P62942); assay: SPR assay to characterize ternary complex formation with FKBP12 (FRB binding to rapalog-saturated FKBP12); conditions: FRB dilutions with 100 nM rapalog on immobilized FKBP12
Procedure: Example 30: SPR Assay to Characterize Ternary Complex Formation with FKBP12
as §1, with “Biotinylated avi-FKBP12” for “Biotinylated avi-FKBP51”, “of 100” for “of 200”, “RU, 0.3” for “RU, 0.6”, “biotinylated avi-FKBP12” for “biotinylated avi-FKBP51”, “for 80” for “for 150”

FKBP12 = FKBP12 (Homo sapiens (Human), UniProt P62942); assay: SPR assay to determine binding affinity to FKBP12 (direct binding); conditions: immobilized biotinylated avi-FKBP12
Procedure: SPR Assay to Determine Binding Affinity to FKBP12.
Biotinylated avi-FKBP12 was immobilized on a streptavidin chip (Cytiva Series S SA) using a Biacore 8K or 8 k+ (Cytiva). To achieve an immobilization level of 1000 RU, 2 μg/ml biotinylated avi-FKBP12 were injected for 100 sec at a flow rate of 10 μl/min. Rapalogs were diluted in DMSO to 100× working concentration. Each Rapalog was 100-fold diluted in 50 mM HEPES pH 7.5, 150 mM NaCl, 2 mM MgCl2, 1 mM DTT, 0.05% Tween-20 and a serial dilution prepared (9 concentrations, 3-fold dilutions, 0.08-500 nM). […] The compound dilutions were then injected at 100 uL/min for 120 seconds contact time in sequence with increasing concentrations. Dissociation was monitored for 3600 seconds. 50 mM HEPES pH 7.5, 150 mM NaCl, 2 mM MgCl2, 1 mM DTT, 0.05% Tween-20, 1% DMSO was used as running buffer. The single-cycle kinetics data were fit to a 1:1 binding model to measure the association rate ka (1/Ms), the dissociation rate kd (1/s) and the affinity Kd (M).

FKBP51 = FKBP51 (Homo sapiens (Human), UniProt Q13451); assay: SPR assay to determine binding affinity to FKBP51 (direct binding); conditions: immobilized biotinylated avi-FKBP51
Procedure: Example 29: SPR Assay to Determine Binding Affinity to FKBP51
Biotinylated avi-FKBP51 was immobilized on a streptavidin chip (Cytiva Series S SA) using a Biacore 8K or 8 k+ (Cytiva). To achieve an immobilization level of 2000 RU, 3 μg/ml biotinylated avi-FKBP51 were injected for 360 sec at a flow rate of 10 μl/min. Rapalogs were diluted in DMSO to 100× working concentration. Each Rapalog was 100-fold diluted in 50 mM HEPES pH 7.5, 150 mM NaCl, 2 mM MgCl2, 1 mM DTT, 0.05% Tween-20 and a serial dilution prepared (8 concentrations, 3-fold dilutions, 0.5-1000 nM). […] The compound dilutions were then injected at 100 uL/min for 120 seconds contact time and with 3600 seconds dissociation time with increasing concentrations. 50 mM HEPES pH 7.5, 150 mM NaCl, 2 mM MgCl2, 1 mM DTT, 0.05% Tween-20, 1% DMSO was used as running buffer. Multi-cycle kinetics data were fit to a 1:1 binding model to measure the association rate ka (1/Ms), the dissociation rate kd (1/s) and the affinity Kd (M).

mTORC1 = mTORC1 (Homo sapiens (Human), UniProt P42345+P62942); assay: mTORC1 inhibition, AlphaLISA of Phospho-p70 S6 kinase (p70S6K pT389) in PC-3 cells; type: cell-based; conditions: inhibition of p70S6K pT389 levels

Sequence of FKBP12 (P62942 whole entry): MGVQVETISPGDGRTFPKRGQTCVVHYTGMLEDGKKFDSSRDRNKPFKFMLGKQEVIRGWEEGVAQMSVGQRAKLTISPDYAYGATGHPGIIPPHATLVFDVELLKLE
Sequence of FKBP51 (Q13451 whole entry): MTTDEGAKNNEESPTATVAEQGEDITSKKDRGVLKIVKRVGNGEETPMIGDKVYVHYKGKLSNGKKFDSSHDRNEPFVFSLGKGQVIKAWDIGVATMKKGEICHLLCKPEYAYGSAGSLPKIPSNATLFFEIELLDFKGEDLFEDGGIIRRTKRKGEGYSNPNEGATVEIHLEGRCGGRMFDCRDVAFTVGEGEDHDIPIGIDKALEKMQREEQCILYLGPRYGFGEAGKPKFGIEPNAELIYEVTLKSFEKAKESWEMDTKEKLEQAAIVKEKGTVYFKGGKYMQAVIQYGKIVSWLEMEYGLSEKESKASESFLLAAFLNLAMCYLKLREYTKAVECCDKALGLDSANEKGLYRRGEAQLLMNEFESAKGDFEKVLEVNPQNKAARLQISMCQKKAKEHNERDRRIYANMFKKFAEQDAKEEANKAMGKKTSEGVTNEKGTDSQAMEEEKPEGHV

Structure (SMILES)	mTORC2 % inhibition at 1 uM (mTORC2)	Kd [1] [nM]	Kd [2] [nM]	Kd (FKBP12) [nM]	Kd (FKBP51) [nM]	IC50 (mTORC1) [nM]
COC1C(=O)C(C)CC/C=C/C=C/C=C(\C)C(NS(=O)(=O)CCCS(=O)(=O)O)C[C@H]2CC[C@H](C)[C@](O)(O2)C(=O)C(=O)N(C)C(C)C(=O)OC([C@H](C)C[C@@H]2CC[C@@H](OC3CC3)[C@H](OC)C2)CC(=O)C(C)/C=C(\C)C1O (stereo partly drawn) [Compound 18]	A (A ≤20% inhibition at 1 micro Molar (uM))	300 to 800	300 to 800	0.3 to 1	10 to 100	0.1 to 0.8
CO[C@@H]1C[C@H](C[C@@H](C)[C@@H]2CC(=O)[C@H](C)/C=C(\C)[C@@H](O)[C@@H](OC)C(=O)[C@H](C)C[C@H](C)/C=C/C=C/C=C(\C)[C@@H](NS(=O)(=O)CC3CCCCC3)C[C@@H]3CC[C@@H](C)[C@@](O)(O3)C(=O)C(=O)N3CCCC[C@H]3C(=O)O2)CC[C@H]1O [Compound 20]	B (B>20% and less than 40% inhibition at 1 uM)	> 800	300 to 800	< 0.3	> 100	0.1 to 0.8
CO[C@@H]1C[C@H](C[C@@H](C)[C@@H]2CC(=O)[C@H](C)/C=C(\C)[C@@H](O)[C@@H](OC)C(=O)[C@H](C)C[C@H](C)/C=C/C=C/C=C(\C)[C@@H](OCC3CCS(=O)(=O)C3)C[C@@H]3CC[C@@H](C)[C@@](O)(O3)C(=O)C(=O)N3CCCC[C@H]3C(=O)O2)CC[C@H]1O (stereo partly drawn) [Compound 30]	A (A ≤20% inhibition at 1 micro Molar (uM))	> 800	> 800	< 0.3	10 to 100	> 0.8
COCCOCCS(=O)(=O)NC1CC2CCC(C)C(O)(O2)C(=O)C(=O)N2CCCCC2C(=O)OC(C(C)CC2CCC(OCCO)C(OC)C2)CC(=O)C(C)C=C(C)C(O)C(OC)C(=O)C(C)CC(C)C=CC=CC=C1C (mixture of isomers) [Compound 7]	B (B>20% and less than 40% inhibition at 1 uM)	300 to 800	< 300	< 0.3	10 to 100	0.1 to 0.8
COCCOCCS(=O)(=O)N[C@@H]1C[C@@H]2CC[C@@H](C)[C@@](O)(O2)C(=O)C(=O)N2CCCC[C@H]2C(=O)O[C@H]([C@H](C)C[C@@H]2CC[C@@H](O)[C@H](OC)C2)CC(=O)[C@H](C)/C=C(\C)[C@@H](O)[C@@H](OC)C(=O)[C@H](C)C[C@H](C)/C=C/C=C/C=C/1C [Compound 8]	B (B>20% and less than 40% inhibition at 1 uM)	300 to 800	300 to 800	< 0.3	10 to 100	0.1 to 0.8
COC1CC(CC(C)C2CC(=O)C(C)C=C(C)C(O)C(OC)C(=O)C(C)CC(C)C=CC=CC=C(C)C(OC3CC3)CC3CCC(C)C(O)(O3)C(=O)C(=O)N3CCCCC3C(=O)O2)CCC1OCCO (stereo not drawn) [Compound 47]	B (B>20% and less than 40% inhibition at 1 uM)	> 800	< 300	> 1	> 100	> 0.8
CCOC(=O)COC1CCC(CC(C)C2CC(=O)C(C)C=C(C)C(O)C(OC)C(=O)C(C)CC(C)C=CC=CC=C(C)C(OCC3CCC3)CC3CCC(C)C(O)(O3)C(=O)C(=O)N3CCCCC3C(=O)O2)CC1OC (stereo not drawn) [Compound 49]	B (B>20% and less than 40% inhibition at 1 uM)	> 800	300 to 800	< 0.3	> 100	> 0.8
COC1CC(CC(C)C2CC(=O)C(C)C=C(C)C(O)C(OC)C(=O)C(C)CC(C)C=CC=CC=C(C)C(OC3CC3)CC3CCC(C)C(O)(O3)C(=O)C(=O)N3CCCCC3C(=O)O2)CCC1OCCCO (stereo not drawn) [Compound 53]	C (C≥40% and less than 60% inhibition at 1 uM)	> 800	< 300	0.3 to 1	> 100	0.1 to 0.8
COC1CC(CC(C)C2CC(=O)C(C)C=C(C)C(O)C(OC)C(=O)C(C)CC(C)C=CC=CC=C(C)C(OCC3CC3)CC3CCC(C)C(O)(O3)C(=O)C(=O)N3CCCCC3C(=O)O2)CCC1OCCCO (stereo not drawn) [Compound 42]	A (A ≤20% inhibition at 1 micro Molar (uM))	> 800	300 to 800	> 1	> 100	> 0.8
COCCS(=O)(=O)NC1CC2CCC(C)C(O)(O2)C(=O)C(=O)N2CCCCC2C(=O)OC(C(C)CC2CCC(OCCO)C(OC)C2)CC(=O)C(C)C=C(C)C(O)C(OC)C(=O)C(C)CC(C)C=CC=CC=C1C (mixture of isomers) [Compound 16]	B (B>20% and less than 40% inhibition at 1 uM)	> 800	300 to 800	< 0.3	10 to 100	0.1 to 0.8
